Data: patent US20170367394A1, “PROCESS FOR INCREASING THE STABILITY OF A COMPOSITION COMPRISING POLYUNSATURATED OMEGA-6 FATTY ACIDS” (Evonik Degussa GmbH, priority 2014, published 2017)

Legend:
Type in all cases: physicochemical
[1] = Anisidine Value (AV, secondary oxidation products) according to Ph. Eur. 2.5.36, before and after storage at 50° C. exposed to air; settings: for Anisidine Value: as obtained / as supplied (experiments 1-4)
Description: An exemplary procedure for determining the Anisidine Value (AV) of a sample is performed as follows:
The anisidine value is defined as 100 times the optical density measured in a 1 cm cell of a solution containing 1 g of the substance to be examined in 100 ml of a mixture of solvents and reagents according to the following method. Carry out the operations as rapidly as possible, avoiding exposure to actinic light.
Test solution (a): Dissolve 0.500 g of the substance to be examined in trimethylpentane and dilute to 25.0 ml with the same solvent.
Test solution (b): To 5.0 ml of test solution (a) add 1.0 ml of a 2.5 g/I solution of p-anisidine in glacial acetic acid, shake and store protected from light.
Reference solution: To 5.0 ml of trimethylpentane add 1.0 ml of a 2.5 g/I solution of p-anisidine in glacial acetic acid, shake and store protected from light. Measure the absorbance of test solution (a) at the maximum at 350 nm using trimethylpentane as the compensation liquid. Measure the absorbance of test solution (b) at 350 nm exactly 10 min after its preparation, using the reference solution as the compensation liquid. Calculate the anisidine value (AV) from the expression:
(§1) Primary oxidation products (hydroperoxides at double bonds) were quantified by determining the Peroxide Value (PV) according to Ph. Eur. 2.5.5 (01/2008:20505). Secondary oxidation products (carbonyl compounds) were quantified by determining the Anisidine Value (AV) according to Ph. Eur. 2.5.36 (01/2008:20536).
(§2) 30 g each of the liquid ethyl arachidonic acid glycerin ester and the gamma-linolenic acid ethyl ester used in experiments 1 and 2 as well as of the arachidonic acids and the gamma-linolenic acid obtained in experiments 1 and 2 were filled into 500 ml Schott Duran glass bottles.
(§3) About 30 g each of the solid lysine-salts ARA-Lys and GLA-Lys obtained in experiments 3 and 4 were filled Schott Duran glass bottles.
(§4) All of the bottles were placed together with opened lids in a drying oven with an opened ventilation valve at 50° C. and stored in the dark under these conditions for 81 days.

[2] = Peroxide Value (PV, primary oxidation products) according to Ph. Eur. 2.5.5, before and after storage at 50° C. exposed to air
Description: An exemplary procedure for determining the Peroxide Value (PV) of a sample is performed as follows:
Peroxide value=(S−B)*N thiosulfate*1000/weight of sample
as §1, §2, §3, §4

[3] = Oligomer content by gel-chromatography (GPC, RI detector); settings: as obtained
Description: Oligomeric PUFA constituents as well as their derivatives (collectively referred to as oligomer content) were quantified by gel-chromatographic means (GPC, styroldivinylbenzene-phase with tetrahydrofuran containing trifluoroacetic acid used as eluent). A refractive index (RI) detector was used for detection. Due to the fact that specific response factors of the constituents of the samples were unknown, proportions were calculated based upon fractional proportions of the total area of chromatograms.

[4] = t = 81 days, open bottles, 50° C., exposed to air, in the dark

| Compound | Anisidine Value [1] | Anisidine Value (AV) ([1]; t = 0, before storage) [A/g] | Anisidine Value (AV) [1, 4] [A/g] | Peroxide Value ([2]; commercially available starting material as supplied) [mmol/kg] | Peroxide Value (PV) ([2]; t = 0, before storage) [mmol/kg] | Peroxide Value (PV) [2, 4] [mmol/kg] | Oligomer content [3] [area-%] | Peroxide Value ([2]; as obtained (experiments 1-4)) [mmol/kg] |
| --- | --- | --- | --- | --- | --- | --- | --- | --- |
| Arachidonic acid-L-Lysine Salt [ARA-Lys] | 1 | 1 | <1 |  | <1 | <1 | 1.1 | < 1 |
| CCCCC/C=C\C/C=C\C/C=C\C/C=C\CCCC(=O)O [ARA-OH, all-cis-5,8,11,14-eicosatetraenoic acid] | 4.2 | 4.2 | 211 |  | 7.2 | 5.8 |  | 7.2 |
| Gamma-Linolenic acid-L-Lysine Salt [GLA-Lys] | 5.4 | 5.4 | <1 |  | 1.0 | <1 | 0.6 | 1.0 |

Second part, led by results:

| Anisidine Value [1] | Anisidine Value (AV) ([1]; t = 0, before storage) [A/g] | Anisidine Value (AV) [1, 4] [A/g] | Peroxide Value ([2]; commercially available starting material as supplied) [mmol/kg] | Peroxide Value (PV) ([2]; t = 0, before storage) [mmol/kg] | Peroxide Value (PV) [2, 4] [mmol/kg] | Compound | Oligomer content [3] [area-%] | Peroxide Value ([2]; as obtained (experiments 1-4)) [mmol/kg] |
| --- | --- | --- | --- | --- | --- | --- | --- | --- |
| 19.1 | 19.1 | 1237 | 52.1 | 52.1 | 86.3 | CCCCC/C=C\C/C=C\C/C=C\CCCCC(=O)OCC [GLA-OEt, gamma-linolenic acid ethyl ester] |  |  |
| 7.6 | 7.6 | 137 |  | 5.6 | 1.3 | CCCCC/C=C\C/C=C\C/C=C\CCCCC(=O)O [GLA-OH, gamma-linolenic acid] | 0.3 | 5.6 |
